In US8802597B2, “Herbicidal pyrimidines” (E I du Pont de Nemours and Company, priority 2003, dated 2014):
Like-named read-outs stand apart in the source and are kept apart here.

What was measured:
Format in all cases: in vivo
[1] = test system: chickweed (Stellaria media); assay: Test C postemergence; details: Stellaria media, post-emergence
Method in brief: (§1)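 Seeds sown and sprayed preemergence with test compound in non-phytotoxic solvent containing surfactant; postemergence sprays, same formulation, went onto plants 2 to 18 cm tall (1- to 4-leaf stage). Plants held in greenhouse 12 to 14 days, then visually rated against untreated controls on a 0–100 scale (0 no effect, 100 complete control).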

[2] = test system: yellow nutsedge (Cyperus esculentus); assay: Test C pre/postemergence; details: Cyperus; for pest or weed control at 62 g/ha: 62 g ai/ha; for pest or weed control at 125 g/ha: 125 g ai/ha; for pest or weed control at 250 g/ha: 250 g ai/ha; for pest or weed control at 500 g/ha: 500 g ai/ha
Method in brief: as §1

[3] = test system: pigweed (Amaranthus retroflexus); assay: Test C pre/postemergence; details: Amaranthus retroflexus; for pest or weed control at 62 g/ha: 62 g ai/ha; for pest or weed control at 125 g/ha: 125 g ai/ha; for pest or weed control at 250 g/ha: 250 g ai/ha; for pest or weed control at 500 g/ha: 500 g ai/ha
Method in brief: as §1

[4] = test system: goosegrass (Eleusine indica); assay: Test C pre/postemergence; details: Eleusine indica; for pest or weed control at 62 g/ha: 62 g ai/ha; for pest or weed control at 125 g/ha: 125 g ai/ha; for pest or weed control at 250 g/ha: 250 g ai/ha; for pest or weed control at 500 g/ha: 500 g ai/ha
Method in brief: as §1

[5] = test system: velvetleaf (Abutilon theophrasti); assay: Test C pre/postemergence; details: Abutilon theophrasti; for pest or weed control at 62 g/ha: 62 g ai/ha; for pest or weed control at 125 g/ha: 125 g ai/ha; for pest or weed control at 250 g/ha: 250 g ai/ha; for pest or weed control at 500 g/ha: 500 g ai/ha
Method in brief: as §1

[6] = test system: woolly cupgrass (Eriochloa villosa); assay: Test C pre/postemergence; details: Eriochloa villosa; for pest or weed control at 62 g/ha: 62 g ai/ha; for pest or weed control at 125 g/ha: 125 g ai/ha; for pest or weed control at 250 g/ha: 250 g ai/ha; for pest or weed control at 500 g/ha: 500 g ai/ha
Method in brief: as §1

[7] = test system: common ragweed (Ambrosia elatior); assay: Test C pre/postemergence; details: Ambrosia artemisiifolia; for pest or weed control at 62 g/ha: 62 g ai/ha; for pest or weed control at 125 g/ha: 125 g ai/ha; for pest or weed control at 250 g/ha: 250 g ai/ha; for pest or weed control at 500 g/ha: 500 g ai/ha
Method in brief: as §1

[8] = test system: bermudagrass (Cynodon dactylon); assay: Test C pre/postemergence; details: Cynodon dactylon; for pest or weed control at 62 g/ha: 62 g ai/ha; for pest or weed control at 125 g/ha: 125 g ai/ha; for pest or weed control at 250 g/ha: 250 g ai/ha; for pest or weed control at 500 g/ha: 500 g ai/ha
Method in brief: as §1

[9] = post-emergence, Postemergence, scale 0 to 100 (0 no effect, 100 complete control), read-out: Nutsedge, Yellow plant response rating
[10] = post-emergence, Postemergence, scale 0 to 100, read-out: Plant response rating, Nutsedge, Yellow
[11] = pre-emergence, Preemergence, scale 0 to 100, read-out: Plant response rating, Nutsedge, Yellow
[12] = post-emergence, Postemergence, scale 0 to 100 (0 no effect, 100 complete control), read-out: Pigweed plant response rating
[13] = post-emergence, Postemergence, scale 0 to 100, read-out: Plant response rating, Pigweed
[14] = pre-emergence, Preemergence, scale 0 to 100, read-out: Plant response rating, Pigweed
[15] = post-emergence, Postemergence, scale 0 to 100 (0 no effect, 100 complete control), read-out: Goosegrass plant response rating
[16] = post-emergence, Postemergence, scale 0 to 100, read-out: Plant response rating, Goosegrass
[17] = pre-emergence, Preemergence, scale 0 to 100, read-out: Plant response rating, Goosegrass
[18] = post-emergence, Postemergence, scale 0 to 100 (0 no effect, 100 complete control), read-out: Velvetleaf plant response rating
[19] = post-emergence, Postemergence, scale 0 to 100, read-out: Plant response rating, Velvetleaf
[20] = pre-emergence, Preemergence, scale 0 to 100, read-out: Plant response rating, Velvetleaf
[21] = post-emergence, Postemergence, scale 0 to 100 (0 no effect, 100 complete control), read-out: Cupgrass, Woolly plant response rating
[22] = post-emergence, Postemergence, scale 0 to 100, read-out: Plant response rating, Cupgrass, Woolly
[23] = pre-emergence, Preemergence, scale 0 to 100, read-out: Plant response rating, Cupgrass, Woolly
[24] = post-emergence, Postemergence, scale 0 to 100 (0 no effect, 100 complete control), read-out: Ragweed plant response rating
[25] = post-emergence, Postemergence, scale 0 to 100, read-out: Plant response rating, Ragweed
[26] = pre-emergence, Preemergence, scale 0 to 100, read-out: Plant response rating, Ragweed
[27] = post-emergence, Postemergence, scale 0 to 100 (0 no effect, 100 complete control), read-out: Bermudagrass plant response rating
[28] = post-emergence, Postemergence, scale 0 to 100, read-out: Plant response rating, Bermudagrass
[29] = pre-emergence, Preemergence, scale 0 to 100, read-out: Plant response rating, Bermudagrass

Nc1nc(C2CC2)nc(C(=O)OCc2ccccc2)c1Br [Compound 22, phenylmethyl 6-amino-5-bromo-2-cyclopropyl-4-pyrimidinecarboxylate]
55%: pest or weed control at 62 g/ha [5, 18]
95%: pest or weed control at 250 g/ha [2, 11] | pest or weed control at 500 g/ha [2, 11] | pest or weed control at 500 g/ha [5, 19] | pest or weed control at 125 g/ha [5, 20] | pest or weed control at 125 g/ha [6, 23] | pest or weed control at 250 g/ha [6, 23] | pest or weed control at 500 g/ha [6, 23]
60%: pest or weed control at 125 g/ha ([1]; 125 g ai/ha, scale 0 to 100 (0 no effect, 100 complete control), read-out: Chickweed plant response rating) | pest or weed control at 125 g/ha [5, 18] | pest or weed control at 62 g/ha [6, 21] | pest or weed control at 125 g/ha [6, 21] | pest or weed control at 250 g/ha [6, 22] | pest or weed control at 125 g/ha [8, 27] | pest or weed control at 250 g/ha [8, 28] | pest or weed control at 500 g/ha [8, 28]
80%: pest or weed control at 250 g/ha [4, 17] | pest or weed control at 62 g/ha [7, 24]
90%: pest or weed control at 500 g/ha ([1]; 500 g ai/ha, scale 0 to 100, read-out: Plant response rating, Chickweed) | pest or weed control at 62 g/ha ([3]; pre-emergence, Preemergence, scale 0 to 100, 0 no effect, 100 complete control, read-out: Plant response rating, Pigweed) | pest or weed control at 250 g/ha [5, 19] | pest or weed control at 62 g/ha ([5]; pre-emergence, Preemergence, scale 0 to 100, 0 no effect, 100 complete control, read-out: Plant response rating, Velvetleaf) | pest or weed control at 250 g/ha [7, 25] | pest or weed control at 500 g/ha [7, 25] | pest or weed control at 62 g/ha ([7]; pre-emergence, Preemergence, scale 0 to 100, 0 no effect, 100 complete control, read-out: Plant response rating, Ragweed) | pest or weed control at 500 g/ha [8, 29]
20%: pest or weed control at 250 g/ha [4, 16]
0%: pest or weed control at 62 g/ha [2, 9] | pest or weed control at 125 g/ha [2, 9] | pest or weed control at 250 g/ha [2, 10] | pest or weed control at 500 g/ha [2, 10] | pest or weed control at 62 g/ha ([2]; pre-emergence, Preemergence, scale 0 to 100, 0 no effect, 100 complete control, read-out: Plant response rating, Nutsedge, Yellow) | pest or weed control at 125 g/ha [2, 11] | pest or weed control at 62 g/ha ([4]; pre-emergence, Preemergence, scale 0 to 100, 0 no effect, 100 complete control, read-out: Plant response rating, Goosegrass) | pest or weed control at 125 g/ha [4, 17] | pest or weed control at 62 g/ha ([8]; pre-emergence, Preemergence, scale 0 to 100, 0 no effect, 100 complete control, read-out: Plant response rating, Bermudagrass)
50%: pest or weed control at 62 g/ha [8, 27] | pest or weed control at 125 g/ha [8, 29] | pest or weed control at 250 g/ha [8, 29]
40%: pest or weed control at 62 g/ha ([6]; pre-emergence, Preemergence, scale 0 to 100, 0 no effect, 100 complete control, read-out: Plant response rating, Cupgrass, Woolly)
25%: pest or weed control at 500 g/ha [4, 16]
10%: pest or weed control at 62 g/ha [4, 15] | pest or weed control at 125 g/ha [4, 15]
85%: pest or weed control at 250 g/ha ([1]; 250 g ai/ha, scale 0 to 100, read-out: Plant response rating, Chickweed) | pest or weed control at 62 g/ha [3, 12] | pest or weed control at 125 g/ha [7, 24]
65%: pest or weed control at 500 g/ha [6, 22]
100%: pest or weed control at 125 g/ha [3, 12] | pest or weed control at 250 g/ha [3, 13] | pest or weed control at 500 g/ha [3, 13] | pest or weed control at 125 g/ha [3, 14] | pest or weed control at 250 g/ha [3, 14] | pest or weed control at 500 g/ha [3, 14] | pest or weed control at 500 g/ha [4, 17] | pest or weed control at 250 g/ha [5, 20] | pest or weed control at 500 g/ha [5, 20] | pest or weed control at 125 g/ha [7, 26] | pest or weed control at 250 g/ha [7, 26] | pest or weed control at 500 g/ha [7, 26]
30%: pest or weed control at 62 g/ha ([1]; 62 g ai/ha, scale 0 to 100 (0 no effect, 100 complete control), read-out: Chickweed plant response rating)
